One may read the Ki as the dissociation constant of the complex between target and ligand, obtained from inhibition or displacement.

The target in experiment [1] is T1, Beta-2 adrenergic receptor (Homo sapiens, UniProt P07550). The note with it: CHO.
Target sequence in this assay (P07550 whole entry, looked up): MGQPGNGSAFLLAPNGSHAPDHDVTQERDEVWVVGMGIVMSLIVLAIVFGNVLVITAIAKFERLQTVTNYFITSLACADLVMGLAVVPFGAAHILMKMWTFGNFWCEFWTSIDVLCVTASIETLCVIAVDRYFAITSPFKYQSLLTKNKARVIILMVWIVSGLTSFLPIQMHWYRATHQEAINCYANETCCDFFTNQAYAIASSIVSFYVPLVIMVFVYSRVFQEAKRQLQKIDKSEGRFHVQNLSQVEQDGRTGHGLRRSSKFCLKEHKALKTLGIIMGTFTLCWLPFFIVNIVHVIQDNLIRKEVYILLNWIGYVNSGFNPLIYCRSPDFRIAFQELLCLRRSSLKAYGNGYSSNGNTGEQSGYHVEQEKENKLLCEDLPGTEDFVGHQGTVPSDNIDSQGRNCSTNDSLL
Description: Binding affinity for human beta-2 Adrenoceptor (AR) expressed in CHO cells by radioligand competition binding assays using [125I]-iodocyanopindolol (ICYP); PR = potency ratio relative to TMQ
The target in experiment [2] is T2, Thromboxane A2 receptor (Homo sapiens) (UniProt P21731).
T2 sequence (whole entry): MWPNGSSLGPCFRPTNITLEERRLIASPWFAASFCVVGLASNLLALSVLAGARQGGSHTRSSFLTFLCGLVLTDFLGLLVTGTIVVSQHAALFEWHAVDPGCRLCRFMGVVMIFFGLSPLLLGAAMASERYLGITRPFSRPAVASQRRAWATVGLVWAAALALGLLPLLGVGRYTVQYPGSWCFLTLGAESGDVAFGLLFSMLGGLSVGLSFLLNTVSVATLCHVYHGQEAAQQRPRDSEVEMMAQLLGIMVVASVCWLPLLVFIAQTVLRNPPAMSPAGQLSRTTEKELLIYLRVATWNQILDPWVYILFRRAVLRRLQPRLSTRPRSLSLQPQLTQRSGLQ
Description: Binding affinity for human Platelet Thromboxane A2 / Prostaglandin (TP), by radioligand competition binding assays using [3H]-SQ 29548 as radioligand. PR = potency ratio relative to TMQ. (Loss of bound radioactivity is the signal in a displacement assay; it reports binding, not function.)

Experiment [3] concerns the target T1, Beta-2 adrenergic receptor. Description: Binding affinity for human Beta-2 adrenergic receptor expressed in CHO cells by radioligand competition binding assays using [125I]iodocyanopindolol (ICYP). It counts as cell-based.
Target sequence in this assay (P07550 whole entry): as the sequence (P07550 whole entry, looked up) above
Experiment [4] addresses T3, Thromboxane A2 receptor (Homo sapiens, UniProt P21731).
T3 sequence (P21731 whole entry): T2 sequence (whole entry)
Description: Binding affinity for human Platelet Thromboxane A2 / Prostaglandin (TP), by radioligand competition binding assays using [3H]-SQ 29548 as radioligand.

SMILES strings stand for the structures.

With `CC(=O)Nc1ccc(CC2NCCc3cc(O)c(O)cc32)cc1I` (stereo not drawn), the PR in experiment [1] turned out to be 5.6; in experiment [2], 0.11.

With `COc1c(I)cc(CC2NCCc3cc(O)c(O)cc32)cc1I` (stereo not drawn), the PR in experiment [1] amounted to 21; in experiment [2], 3.5.

With `COc1cc(C[C@@H]2NCCc3cc(O)c(O)cc32)cc(OC)c1OC`, the PR in experiment [1] and in experiment [2] was 1 each time.

On to `Nc1c(I)cc(CC2NCCc3cc(O)c(O)cc32)cc1I` (stereo not drawn), for which the PR was 28 in experiment [1] and 0.87 in experiment [2].

On to `Oc1cc2c(cc1O)C(Cc1cc(C(F)(F)F)cc(C(F)(F)F)c1)NCC2` (stereo not drawn), for which the PR stood at 0.01 in experiment [1] and 0.002 in experiment [2].

On to `O=C(Nc1ccc(CC2NCCc3cc(O)c(O)cc32)cc1I)c1ccccc1` (stereo not drawn), for which the PR in experiment [1] was found to be 22; in experiment [2], 0.03.

Take `Oc1cc2c(cc1O)C(Cc1cc(I)c(I)c(I)c1)NCC2` (stereo not drawn): the PR in experiment [1] was 29; in experiment [2] it was 0.003.

`Nc1ccc(CC2NCCc3cc(O)c(O)cc32)cc1I` (stereo not drawn): the inhibition constant Ki in experiment [3] is 6.46 nM; in experiment [4], 1000 nM. The PR in experiment [1] came out at 6.8; in experiment [2], 0.16.

The values are drawn from ChEMBL document CHEMBL1129641 (J Med Chem, 1996).
